Reference: patent US20090311185A1, “Peptide having antianxiety activity and screening method therefor” (priority 2005, published 2009)
Entries after “also recorded” stand apart in the source; their conditions may differ. Bridges are numbered along the chain shown (N, C = ends). Roman numbers before positions name the chains, in order. Where no end group is shown, it is not given here.

What was measured:
[1] = target: T1, SALPR (Homo sapiens, UniProt Q9NSD7); experiment: Suppression of forskolin-increased transcription activity (CRE-PLAP reporter) in SALPR-SE302 cells; type: cell-based; settings: forskolin 1 μmol/L, 1 day incubation
T1 construct: the area encoding SALPR is known to be from position 1 to position 1407 (1410 base pairs, 469 amino acid residues); expressed in transfected cells; host or cells: SE302 cells (HEK293 clone carrying the CRE-PLAP reporter), transduced with retrovirus vector pBabeCL(SALPR)IH and selected with hygromycin
T1 sequence (Q9NSD7 1-469): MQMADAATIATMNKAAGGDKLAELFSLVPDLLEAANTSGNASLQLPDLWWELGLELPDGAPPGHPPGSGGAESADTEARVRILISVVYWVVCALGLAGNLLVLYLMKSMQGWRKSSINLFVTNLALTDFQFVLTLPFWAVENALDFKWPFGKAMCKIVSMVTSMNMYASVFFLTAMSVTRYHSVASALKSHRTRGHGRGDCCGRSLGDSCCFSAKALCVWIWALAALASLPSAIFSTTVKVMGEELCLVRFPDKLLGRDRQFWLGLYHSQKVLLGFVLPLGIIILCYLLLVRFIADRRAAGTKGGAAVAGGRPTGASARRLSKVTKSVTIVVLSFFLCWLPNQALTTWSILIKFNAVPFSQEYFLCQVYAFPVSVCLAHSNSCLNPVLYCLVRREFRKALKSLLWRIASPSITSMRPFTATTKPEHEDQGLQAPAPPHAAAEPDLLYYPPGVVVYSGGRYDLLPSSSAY
Method: SE302 cells (3×10^3) constructed in Example 5 above were cultured in a 96-well plate (Asahi Techno Glass) using 100 μl of DMEM (Sigma) supplemented with […] fetal bovine serum (FBS) and PS (hereinafter called “culture medium”). On the following day, the retrovirus vector prepared in Example 4 was appropriately diluted and a 100-μl portion of the dilution and polybrene (also called as hexadimethrine bromide, Sigma) prepared in the culture medium (at a final concentration of 8 μg/ml) were added to the SE302 cells. On the following day, the culture medium was replaced by 200 μl of a culture medium supplemented with 500 μg/ml hygromycin (Invitrogen) and then incubation was continued. The SE302 cells for SALPR gene transfer grown under these conditions (hereinafter called “SALPR-SE302 cells”) were appropriately subcultured for experimental use.
SALPR-SE302 cells constructed in Example 6 above were suspended in a medium for measuring transcription activity (DMEM supplemented with 10% FBS (inactivated at 65° C. for 30 minutes)) and then inoculated in a 96-well plate (Beckton Dickinson) at 1×10^4 cells/well. […]

[2] = system: rats; experiment: Defensive burying test after intracerebroventricular administration; type: in vivo, rat; settings: F344 male rats, 15 min test, vs vehicle
Method: The influence of relaxin-3 on an anxiety activity was determined using a defensive burying test (Treit et al., Pharmacology Biochemistry and Behavior, 15, p. 619-626, 1981).
F344 male rats (7 weeks of age; Japan Charles River) were fed foods for experimental animals (MF; Oriental Yeast) to be adapted. The rats (150 to 200 g) received cannulation into the lateral cerebroventricle under anesthesia. Administration experiments of relaxin-3 were carried out a week or later.
The tested rats were placed and left in a testing chamber, which floor was covered with a bedding material to a height of 5 cm, for 30 minutes or more once a day from 3 days before the defensive burying test, so as to allow the tested rats to habituate to the testing environment. The rats were habituated to the environment without the stimulating electrode until the test. […]
On test day, the tested rats were placed in a test chamber (with bedding material to a height of 5 cm) with a stimulating electrode, so as to start an experiment. […] All behaviors of the tested rats were recorded using a videocamera, and the burying behavior time (burying time (sec.)) within 15 minutes from the first electrical shock was measured using the recorded tape. […]

[3] = system: mice; experiment: Elevated plus-maze test after intracerebroventricular administration (mice); type: in vivo; settings: BALB/c male mice, 1 nmol/mouse intracerebroventricular, 5 min test, vs vehicle
Method: The influence of relaxin-3 on anxiety activity was determined using an elevated plus-maze. An elevated plus-maze test is a behavioral pharmacological test which is widely used in the measurement of anxiety level of experimental animals such as rats or mice, or for the evaluation of drug efficacies of antianxiety drugs, using exploring behaviors in open arms, such as the time spent in open arms, as an index.
BALB/c male mice (7 weeks of age; Japan Charles River) were received cannulation into the lateral cerebroventricle under anesthesia. The mice were then fed, and administration experiments of relaxin-3 were carried out a week or later.
The human relaxin-3 (Peptide Institute, Inc.) was dissolved in physiological saline and was diluted to a final concentration of 1 nmol/mouse.
The tested mice with guide cannula implantation were intracerebroventricularly administered with each 2 μL of the human relaxin-3 administration solution (N=8) or a vehicle solution (physiological saline) (N=9) at a rate of 1 μL per minute using an infusion pump.
Antianxiety activities were measured using an elevated plus-maze. […] The behaviors of mice were recorded by a video, and the number of entries into the open and closed arms and the time spent in the open and closed arms were measured on each mouse by analyzing the video after the completion of the test. […]

[4] = system: rats; experiment: Elevated plus-maze test after intracerebroventricular administration (rats); type: in vivo, rat; settings: Wistar male rats, 5 min test, vs vehicle
Method: The influence of relaxin-3 on anxiety activity was determined using an elevated plus-maze.
Wistar male rats (9 weeks of age; Japan Charles River) were received cannulation into the lateral cerebroventricle under anesthesia. The rats were then fed, and administration experiments of relaxin-3 were carried out a week or later.
The human relaxin-3 (Peptide Institute, Inc.) was dissolved in physiological saline and was diluted to a final concentration of 10 pmol/rat or 50 pmol/rat.
The tested rats with guide cannula implantation were administered with 5 μL each of the human relaxin-3 administration solution (10 pmol/rat, N=8; or 50 pmol/rat, N=7), or vehicle group (physiological saline, N=7) at a rate of 2.5 μL per minute using an infusion pump.
Antianxiety activities were measured using an elevated plus-maze. The maze was raised 50 cm above the floor and included four arms arranged in the form of a plus sign (+) spread from the central platform (10 cm×10 cm) positioned at the center. Two opposite arms (50 cm long and 10 cm wide) are open arms, and the other two opposite arms (50 cm long, 10 cm wide with walls 40 cm high) were closed arms. Lighting was arranged so as to set the luminance at the floor in the open arms was 60 to 80 lux. A rat 10 minutes after the intracerebroventricular administration was placed in the center of the plus-maze so as to face one of the open arms, and the test was carried out for 5 minutes. The test was conducted only within a period from 11:00 to 16:00. The behaviors of rats were recorded by a video, and the number of entries into the open and closed arms and the time spent in the open and closed arms were measured on each mouse by analyzing the video after the completion of the test. FIGS. 7 and 8 show the total number of entries into open and closed arms and the percentage of time spent in open arms within 5 minutes, respectively. To compare among the human relaxin-3 administration groups and the vehicle group, a significant difference test by the t-test was conducted.

[5] = system: THP-1 cells; settings: THP-1 cells of the immune system; WO 01/81562, Bathgate et al. 2002; cited from earlier work
[6] = 50 pmol/rat intracerebroventricular

Substance	transcription activity increased by addition of forskolin (alkaline phosphatase reporter) [1]	burying behavior time ([2]; 0.05 nmol/rat intracerebroventricular)	burying behavior time ([2]; 1 nmol/rat intracerebroventricular, Dunnett P<0.05)	total number of entries into open and closed arms [3]	time spent in open arms ([3]; P<0.05)	total number of entries into open and closed arms ([4]; 10 pmol/rat intracerebroventricular)	time spent in open arms ([4]; 10 pmol/rat intracerebroventricular, P<0.05)	time spent in open arms [4, 6]	total number of entries into open and closed arms [4, 6]	intracellular cyclic AMP (cAMP) [5]
insulin [reference compound]	not affected	–	–	–	–	–	–	–	–	–
human relaxin-3: Synthetic human relaxin-3: B-chain SEQ ID NO: 5 and A-chain SEQ ID NO: 6 bonded through disulfide bonds (beta RAAPYGVRLCGREFIRAVIFTCGGSRW; alpha DVLAGLSSSCCKWGCSKSEISSLC; disulfide I:10-II:11, I:22-II:24, II:10-II:15; not fully specified; ends not checked; listed as Homo sapiens)	–	decreased	significant decrease	no difference	significant increase	no difference	statistically significantly high	increase	no difference	–
relaxin-3: Relaxin-3 (Phoenix Pharmaceuticals) used in the SALPR reporter assay; mature two-chain polypeptide also known as INSL7	suppresses; also recorded: specific dose-dependent suppression	–	–	–	–	–	–	–	–	increase
